In patent US9113629B2, “4-amino-6-(4-substituted-phenyl)-picolinates and 6-amino-2-(4-substituted-phenyl)-pyrimidine-4-carboxylates and their use as herbicides” (DOW AGROSCIENCES LLC, priority 2013, dated 2015):
Like-named read-outs stand apart in the source and are kept apart here.

Experiments:
[1] = tested on: Key Broadleaf Weed and Crop Species; experiment: Post-emergent Test II herbicidal activity (Table 5); format: in vivo; conditions: post-emergence, 336 h, 14 days after application; for pest or weed control at 70 g/ha: application rate 70 g ai/ha; for pest or weed control at 140 g/ha: application rate 140 g ai/ha
Procedure, shortened: (§1)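 Visual injury ratings (0 = no injury, 100 = complete kill) were taken 14 d after treatment, relative to untreated plants. Seedlings at the first–second true leaf stage received overhead spray at 187 L/ha; the highest rate was serially diluted to ½×, ¼×, ⅛× and 1/16×.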

[2] = tested on: Key Grass and Sedge Weeds as well as Grass Crops; experiment: Post-emergent Test II herbicidal activity (Table 6); format: in vivo; conditions: post-emergence, 336 h; for pest or weed control at 70 g/ha: 70 g ai/ha; for pest or weed control at 140 g/ha: 140 g ai/ha
Procedure, shortened: as §1

[3] = ABUTH: velvetleaf (Abutilon theophrasti), read-out: Visual Growth Reduction (%) 14 Days After Application, ABUTH
[4] = BRSNN: oilseed-rape, canola (Brassica napus), read-out: Visual Growth Reduction (%) 14 Days After Application, BRSNN
[5] = CHEAL: lambsquarters (Chenopodium album), read-out: Visual Growth Reduction (%) 14 Days After Application, CHEAL
[6] = EPHHL: wild poinsettia (Euphorbia heterophylla), read-out: Visual Growth Reduction (%) 14 Days After Application, EPHHL
[7] = HELAN: sunflower (Helianthus annuus), read-out: Visual Growth Reduction (%) 14 Days After Application, HELAN
[8] = VIOTR: wild pansy (Viola tricolor), read-out: Visual Growth Reduction (%) 14 Days After Application, VIOTR
[9] = CYPES: yellow nutsedge (Cyperus esculentus), read-out: Visual Growth Reduction (%) 14 Days After Application, CYPES
[10] = DIGSA: crabgrass (Digitaria sanguinalis), read-out: Visual Growth Reduction (%) 14 Days After Application, DIGSA
[11] = ECHCG: barnyardgrass (Echinochloa crus-galli), read-out: Visual Growth Reduction (%) 14 Days After Application, ECHCG
[12] = ORYSA: rice (Oryza sativa), crop, read-out: Visual Growth Reduction (%) 14 Days After Application, ORYSA
[13] = SETFA: giant foxtail (Setaria faberi), read-out: Visual Growth Reduction (%) 14 Days After Application, SETFA
[14] = SORVU: grain sorghum (Sorghum vulgare), read-out: Visual Growth Reduction (%) 14 Days After Application, SORVU
[15] = TRZSS (wheat, Triticum aestivum), crop, read-out: Visual Growth Reduction (%) 14 Days After Application, TRZSS
[16] = ZEAMX: maize, corn (Zea mays), crop, read-out: Visual Growth Reduction (%) 14 Days After Application, ZEAMX

- melting point: 142 to 147 °C (dec.)
SMILES: C#Cc1ccc(-c2nc(C(=O)O)c(Cl)c(N)c2F)cc1 [Compound 62]
- pest or weed control at 70 g/ha [1, 3]: 75 to 84%
- pest or weed control at 140 g/ha [1, 3]: 75 to 84%
- pest or weed control at 70 g/ha ([1]; AMARE: redroot pigweed (Amaranthus retroflexus), read-out: Visual Growth Reduction (%) 14 Days After Application, AMARE): 95 to 100%
- pest or weed control at 70 g/ha [1, 4]: 95 to 100%
- pest or weed control at 140 g/ha [1, 4]: 95 to 100%
- pest or weed control at 70 g/ha [1, 5]: 85 to 94%
- pest or weed control at 140 g/ha [1, 5]: 85 to 94%
- pest or weed control at 70 g/ha [1, 6]: 95 to 100%
- pest or weed control at 140 g/ha [1, 6]: 95 to 100%
- pest or weed control at 70 g/ha [1, 7]: 85 to 94%
- pest or weed control at 140 g/ha [1, 7]: 95 to 100%
- pest or weed control at 70 g/ha [1, 8]: 0 to 29%
- pest or weed control at 140 g/ha [1, 8]: 0 to 29%
- pest or weed control at 70 g/ha [2, 9]: 95 to 100%
- pest or weed control at 140 g/ha [2, 9]: 95 to 100%
- pest or weed control at 70 g/ha [2, 10]: 85 to 94%
- pest or weed control at 140 g/ha [2, 10]: 85 to 94%
- pest or weed control at 70 g/ha [2, 11]: 95 to 100%
- pest or weed control at 140 g/ha [2, 11]: 95 to 100%
- pest or weed control at 70 g/ha [2, 12]: 0 to 29%
- pest or weed control at 140 g/ha [2, 12]: 0 to 29%
- pest or weed control at 70 g/ha [2, 13]: 95 to 100%
- pest or weed control at 140 g/ha [2, 13]: 95 to 100%
- pest or weed control at 70 g/ha [2, 14]: 75 to 84%
- pest or weed control at 140 g/ha [2, 14]: 75 to 84%
- pest or weed control at 70 g/ha [2, 15]: 45 to 59%
- pest or weed control at 140 g/ha [2, 15]: 45 to 59%
- pest or weed control at 70 g/ha [2, 16]: 75 to 84%
- pest or weed control at 140 g/ha [2, 16]: 85 to 94%
